Data from the supplement of paper PMC11451515.

How the values were obtained:
Conditions in all cases: 48 h
[1] = system: NOMO1; test: cell viability relative to DMSO control; higher = less cytotoxic
Procedure, shortened: (§1)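 NOMO1 or SEM (500 cells/well) or P12-Ichikawa (1000 cells/well) leukemia cells were adapted for at least four passages in each medium. They were seeded in 1536-well plates (5 μl) and pin-dosed with library compounds in DMSO over an 11-point threefold series, 47 μM to 0.79 nM. CellTiter-Glo One luminescence was read after 48 h at 37°C. Viability is the per-plate percentage relative to DMSO wells, with cell-free wells as background.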

[2] = system: P12-Ichikawa; test: as above
Procedure, shortened: as §1

[3] = system: SEM cells; test: as above
Procedure, shortened: as §1

[4] = system: NOMO1; test: AUC of viability dose-response curve (% viability x log10 dose units); higher = less sensitive
Procedure, shortened: (§2)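 Area under the curve was integrated by trapezoidal rule from a log-logistic fit of normalised viability, with curves exceeding full viability scaled and quality-control failures removed. The fit had four parameters over log10 doses. Viability came from CellTiter-Glo One luminescence, normalised per plate to DMSO and cell-free wells, after leukemia cells adapted to each medium (500 or 1000 cells/well, 1536-well plates) were exposed to library compounds in DMSO for 48 h at 37°C. The 11 threefold doses ran from 47 μM to 0.79 nM.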

[5] = system: P12-Ichikawa; test: as above
Procedure, shortened: as §2

[6] = system: SEM cells; test: as above
Procedure, shortened: as §2

COc1ccccc1OCCNCC(O)COc1cccc2[nH]c3ccccc3c12 (stereo not drawn)
cell viability [%]
Conditions | [1] | [2] | [3]
HPLM + 10% dialyzed FBS, 0.000781 µM | 132 | 121 | 114
HPLM + 10% dialyzed FBS, 0.00234 µM | 124 | 124 | 131
HPLM + 10% dialyzed FBS, 0.00702 µM | 116 | 124 | 105
HPLM + 10% dialyzed FBS, 0.0211 µM | 121 | 118 | 126
HPLM + 10% dialyzed FBS, 0.0632 µM | 123 | 119 | 115
HPLM + 10% dialyzed FBS, 0.19 µM | 131 | 117 | 123
HPLM + 10% dialyzed FBS, 0.569 µM | 139 | 122 | 124
HPLM + 10% dialyzed FBS, 1.71 µM | 117 | 119 | 134
HPLM + 10% dialyzed FBS, 5.12 µM | 139 | 109 | 115
HPLM + 10% dialyzed FBS, 15.4 µM | 123 | 113 | 113
HPLM + 10% dialyzed FBS, 46.1 µM | 116 | 100 | 87.3
RPMI 5 mM glucose + 10% FBS, 0.000781 µM | 116 | – | 107
RPMI 5 mM glucose + 10% FBS, 0.00234 µM | 112 | – | 114
RPMI 5 mM glucose + 10% FBS, 0.00702 µM | 114 | – | 98.6
RPMI 5 mM glucose + 10% FBS, 0.0211 µM | 119 | – | 118
RPMI 5 mM glucose + 10% FBS, 0.0632 µM | 112 | – | 125
RPMI 5 mM glucose + 10% FBS, 0.19 µM | 103 | – | 123
RPMI 5 mM glucose + 10% FBS, 0.569 µM | 113 | – | 121
RPMI 5 mM glucose + 10% FBS, 1.71 µM | 113 | – | 133
RPMI 5 mM glucose + 10% FBS, 5.12 µM | 118 | – | 124
RPMI 5 mM glucose + 10% FBS, 15.4 µM | 113 | – | 96.3
RPMI 5 mM glucose + 10% FBS, 46.1 µM | 102 | – | 91.6
RPMI 5 mM glucose + 10% dialyzed FBS, 0.000781 µM | 123 | 119 | 115
RPMI 5 mM glucose + 10% dialyzed FBS, 0.00234 µM | 120 | 115 | 117
RPMI 5 mM glucose + 10% dialyzed FBS, 0.00702 µM | 119 | 119 | 91.8
RPMI 5 mM glucose + 10% dialyzed FBS, 0.0211 µM | 132 | 119 | 119
RPMI 5 mM glucose + 10% dialyzed FBS, 0.0632 µM | 114 | 122 | 120
RPMI 5 mM glucose + 10% dialyzed FBS, 0.19 µM | 128 | 122 | 132
RPMI 5 mM glucose + 10% dialyzed FBS, 0.569 µM | 144 | 115 | 119
RPMI 5 mM glucose + 10% dialyzed FBS, 1.71 µM | 118 | 124 | 128
RPMI 5 mM glucose + 10% dialyzed FBS, 5.12 µM | 129 | 112 | 118
RPMI 5 mM glucose + 10% dialyzed FBS, 15.4 µM | 124 | 112 | 107
RPMI 5 mM glucose + 10% dialyzed FBS, 46.1 µM | 112 | 99.6 | 93.5

AUC of viability dose-response curve
Conditions | [4] | [5] | [6]
HPLM + 10% dialyzed FBS | 476 | 461 | 467
RPMI 5 mM glucose + 10% FBS | 465 | 468 | 463
RPMI 5 mM glucose + 10% dialyzed FBS | 474 | 468 | 467

CC(=O)Oc1cc2c(s1)CCN(C(C(=O)C1CC1)c1ccccc1F)C2.Cl (stereo not drawn)
cell viability [%]
Conditions | [1] | [2] | [3]
HPLM + 10% dialyzed FBS, 0.000781 µM | 90.3 | 95 | 84.3
HPLM + 10% dialyzed FBS, 0.00234 µM | 106 | 102 | 102
HPLM + 10% dialyzed FBS, 0.00702 µM | 104 | 100 | 103
HPLM + 10% dialyzed FBS, 0.0211 µM | 117 | 107 | 113
HPLM + 10% dialyzed FBS, 0.0632 µM | 98.3 | 107 | 115
HPLM + 10% dialyzed FBS, 0.19 µM | 107 | 103 | 112
HPLM + 10% dialyzed FBS, 0.569 µM | 116 | 107 | 110
HPLM + 10% dialyzed FBS, 1.71 µM | 64.7 | 112 | 122
HPLM + 10% dialyzed FBS, 5.12 µM | 58 | 101 | 120
HPLM + 10% dialyzed FBS, 15.4 µM | 42.7 | 106 | 101
HPLM + 10% dialyzed FBS, 46.1 µM | 16 | 65.1 | 68.5
RPMI 5 mM glucose + 10% FBS, 0.000781 µM | 98.5 | 100 | 71.3
RPMI 5 mM glucose + 10% FBS, 0.00234 µM | 92.7 | 106 | 96.9
RPMI 5 mM glucose + 10% FBS, 0.00702 µM | 95.5 | 101 | 88.7
RPMI 5 mM glucose + 10% FBS, 0.0211 µM | 94.3 | 111 | 96.7
RPMI 5 mM glucose + 10% FBS, 0.0632 µM | 97.3 | 115 | 90.8
RPMI 5 mM glucose + 10% FBS, 0.19 µM | 108 | 124 | 101
RPMI 5 mM glucose + 10% FBS, 0.569 µM | 91.1 | 116 | 94.2
RPMI 5 mM glucose + 10% FBS, 1.71 µM | 76.8 | 133 | 100
RPMI 5 mM glucose + 10% FBS, 5.12 µM | 64.4 | 101 | 101
RPMI 5 mM glucose + 10% FBS, 15.4 µM | 51.7 | 94.8 | 82.1
RPMI 5 mM glucose + 10% FBS, 46.1 µM | 18.7 | 53.5 | 53.3
RPMI 5 mM glucose + 10% dialyzed FBS, 0.000781 µM | 88 | 95.9 | 76.1
RPMI 5 mM glucose + 10% dialyzed FBS, 0.00234 µM | 95.6 | 105 | 106
RPMI 5 mM glucose + 10% dialyzed FBS, 0.00702 µM | 100 | 102 | 103
RPMI 5 mM glucose + 10% dialyzed FBS, 0.0211 µM | 101 | 104 | 111
RPMI 5 mM glucose + 10% dialyzed FBS, 0.0632 µM | 90.4 | 103 | 107
RPMI 5 mM glucose + 10% dialyzed FBS, 0.19 µM | 99.6 | 112 | 114
RPMI 5 mM glucose + 10% dialyzed FBS, 0.569 µM | 103 | 104 | 110
RPMI 5 mM glucose + 10% dialyzed FBS, 1.71 µM | 86.4 | 101 | 117
RPMI 5 mM glucose + 10% dialyzed FBS, 5.12 µM | 62.1 | 99.7 | 115
RPMI 5 mM glucose + 10% dialyzed FBS, 15.4 µM | 40.3 | 80.3 | 78.6
RPMI 5 mM glucose + 10% dialyzed FBS, 46.1 µM | 25.1 | 50.3 | 54.4

AUC of viability dose-response curve
Conditions | [4] | [5] | [6]
HPLM + 10% dialyzed FBS | 386 | 468 | 466
RPMI 5 mM glucose + 10% FBS | 396 | 455 | 431
RPMI 5 mM glucose + 10% dialyzed FBS | 396 | 452 | 453

CN1/C=C(\N=C(NC2=CC=C(C=C2)C(=O)N3CCOCC3)/C1=O)/C4=C(C)C(=CC=C4)NC(=O)C5=CC=C(C=C5)C(C)(C)C
cell viability [%]
Conditions | [1] | [2] | [3]
HPLM + 10% dialyzed FBS, 0.000781 µM | 91.6 | 107 | 111
HPLM + 10% dialyzed FBS, 0.00234 µM | 114 | 108 | 97.2
HPLM + 10% dialyzed FBS, 0.00702 µM | 102 | 108 | 105
HPLM + 10% dialyzed FBS, 0.0211 µM | 85.2 | 101 | 48.6
HPLM + 10% dialyzed FBS, 0.0632 µM | 103 | 104 | 106
HPLM + 10% dialyzed FBS, 0.19 µM | 111 | 103 | 116
HPLM + 10% dialyzed FBS, 0.569 µM | 112 | 106 | 97.5
HPLM + 10% dialyzed FBS, 1.71 µM | 110 | 98.1 | 110
HPLM + 10% dialyzed FBS, 5.12 µM | 97.2 | 98.3 | 106
HPLM + 10% dialyzed FBS, 15.4 µM | 94.2 | 88.6 | 89.5
HPLM + 10% dialyzed FBS, 46.1 µM | 70.7 | 89.5 | 92.2
RPMI 5 mM glucose + 10% FBS, 0.000781 µM | 91.4 | 102 | 110
RPMI 5 mM glucose + 10% FBS, 0.00234 µM | 84.4 | 95.4 | 102
RPMI 5 mM glucose + 10% FBS, 0.00702 µM | 99.5 | 107 | 106
RPMI 5 mM glucose + 10% FBS, 0.0211 µM | 89.5 | 91.2 | 46.8
RPMI 5 mM glucose + 10% FBS, 0.0632 µM | 98.3 | 106 | 101
RPMI 5 mM glucose + 10% FBS, 0.19 µM | 88.7 | 110 | 86.6
RPMI 5 mM glucose + 10% FBS, 0.569 µM | 100 | 97.9 | 110
RPMI 5 mM glucose + 10% FBS, 1.71 µM | 84.9 | 100 | 92.8
RPMI 5 mM glucose + 10% FBS, 5.12 µM | 80.6 | 98.5 | 104
RPMI 5 mM glucose + 10% FBS, 15.4 µM | 88.1 | 95.4 | 83.3
RPMI 5 mM glucose + 10% FBS, 46.1 µM | 85.1 | 94.4 | 66
RPMI 5 mM glucose + 10% dialyzed FBS, 0.000781 µM | 97.6 | 106 | 106
RPMI 5 mM glucose + 10% dialyzed FBS, 0.00234 µM | 92.9 | 111 | 108
RPMI 5 mM glucose + 10% dialyzed FBS, 0.00702 µM | 96.2 | 103 | 105
RPMI 5 mM glucose + 10% dialyzed FBS, 0.0211 µM | 95.9 | 101 | 50.7
RPMI 5 mM glucose + 10% dialyzed FBS, 0.0632 µM | 106 | 108 | 120
RPMI 5 mM glucose + 10% dialyzed FBS, 0.19 µM | 100 | 106 | 107
RPMI 5 mM glucose + 10% dialyzed FBS, 0.569 µM | 107 | 105 | 100
RPMI 5 mM glucose + 10% dialyzed FBS, 1.71 µM | 94.6 | 106 | 111
RPMI 5 mM glucose + 10% dialyzed FBS, 5.12 µM | 93.1 | 107 | 92.2
RPMI 5 mM glucose + 10% dialyzed FBS, 15.4 µM | 78.4 | 93.7 | 98.5
RPMI 5 mM glucose + 10% dialyzed FBS, 46.1 µM | 77.2 | 85.7 | 68.6

AUC of viability dose-response curve
Conditions | [4] | [5] | [6]
HPLM + 10% dialyzed FBS | 466 | 458 | 468
RPMI 5 mM glucose + 10% FBS | 430 | 466 | 443
RPMI 5 mM glucose + 10% dialyzed FBS | 454 | 467 | 458
